Measured values published in patent publication US5656721A, “Peptide derivatives” (Sandoz Ltd., priority 1986, dated 1997).
Where two headings read alike, the source gives them in different places. Starred links: 1 amine or outer side, 2 acyl side, 3 side chain; linkers in the order of their positions; H or OH if unused. Positions of bridges follow the written chain, without caps; N, C: chain ends. Non-standard residues stand in square brackets, D forms with d. Residues, ends and D or L forms follow the SMILES beside them. X1 = O=C([C@@H](Cc1ccccc1)N(C[C@@]1(O)OC[C@@H](O)[C@@H](O[C@H]2O[C@H](CO)[C@@H](O)[C@H](O)[C@H]2O)[C@@H]1O)[*:1])[*:2]; X3 = O=C([C@@H](Cc1ccccc1)N(C[C@@]1(O)OC[C@@H](O)[C@@H](O)[C@@H]1O)[*:1])[*:2]; X2 = O=C([C@H](CS[*:3])N(C[C@@]1(O)OC[C@@H](O)[C@@H](O)[C@@H]1O)[*:1])[*:2]; Thr(ol) = C[C@@H](O)[C@H](N)CO

Columns and labels:
[1] = Absorption on oral administration, plasma levels by RIA; assay type: in vivo, OFA rats; details: OFA, rat, 10 mg/kg; for level at 0.25 h: 15 mins., read-out: Rat plasma levels following oral administration, 15 mins.; for level at 0.5 h: 30 mins., read-out: Rat plasma levels following oral administration, 30 mins.; for level at 1 h: 60 mins., read-out: Rat plasma levels following oral administration, 60 mins.
Experimental: Improved absorption on oral administration may be detected for the compounds of the invention as follows:
The compound of the invention and the unmodified analogue are administered orally to OFA rats (e.g. 10 mg/kg). After definite periods of time, e.g. 15, 30 and 60 minutes, blood samples are collected, These are analysed for their drug content by e.g. RIA.

[2] = test system: calcium level in the blood; experiment: Hypocalcemic activity, calcium level in the blood after i.v. administration; assay type: in vivo; details: dogs, 5 μg/kg
Excerpt: The sugar derivatives of calcitonin and of calcitonin analogues or derivatives according to the invention, more especially the derivatives of formula X reduce the calcium plasma level. Moreover, they are functional antagonists of the parathormone, and effect a positive calcium balance in the bones. The hypocalcemic activity of the new compounds may be measured in known manner, e.g. according to the method of M. Azria et al., reported in the Calcitonin 1984 Symposium, 24th October, Milan and published as "Short Communication" in "Current Clinical Practice Series" No. 42, Excerpta Medica 1986, page 104. In this method, a Ca^2+ -ion selective electrode is used, so that the content of calcium ions in the blood of young rabbits or dogs may be continuously measured. The compounds are administered i.v. at a dosage of from about 0.1 to about 10 micrograms/kg, e.g. conforming to ca. 1 international unit per kg. […]
It has for example been determined that each of the compounds of examples 37 and 38 have a duration of action that is much longer than with the unmodified peptide, when administered i.v. to dogs (5 μg/kg).

GH level in the serum [3] = assay type: in vivo, rats
Experimental: Male rats are decapitated and blood is collected 1 hour after administering the GH secrection inhibiting compound in several logarithmically spaced doses. The GH level in the serum is determined means of RIA. In this test, these compounds of the invention are active at doses from about 0.02 to about 30 microgram/kg s.c.

[4] = Bioavailability test, oral or intravenous administration, blood detection by radioimmunoassay; assay type: in vivo, dogs
Excerpt: The compounds of the invention may be compared with the unmodified peptides in standard bioavailability tests.
The compounds of the invention, for example, may be detected in the blood plasma for a longer period after administration than the unmodified peptides, as indicated in standard bioavailability experiments.
The compounds of the invention and the unmodified peptide may be administered to for example dogs in a single dose sufficient to produce a therapeutic effect by oral or intravenous administration.
Doses used are those which permit the peptide or a metabolite thereof to be detected in the blood. Detection may be effected in conventional manner, e.g. by radioimmunoassay.

[5] = Elimination through bile and urine in anaesthetized cannulated rats after s.c. administration; details: male, rat, in vivo, sc, 10 microgram/kg
Experimental: Additionally the compounds of the invention advantageously are eliminated to a greater extent through the kidneys. This may be observed in standard tests.
Fasted Male rats (225-375 g) are administered orally with water (50 ml/kg). After 30 minutes the animals are anaesthetized with e.g. Inactin (100 mg/kg i.p.). The bile duct and bladder are cannulated. Both V. jugularis are exposed. In one vein an infusion of glucose 5% with ethanol 1% is administered (5 ml/hr) to stimulate diuresis. The other vein is used to take blood samples (0.5 ml) every hour over 4 hours.
The compound of the invention and the unmodified peptide is administered s.c. at a dose of from about 10 to about 1000 microgram/Kg. The concentration of the compound is determined in conventional manner e.g. by RIA.
In the above test for example the following results have been obtained with the example 2 compound and octreotide at a dose of 10 microgram/kg: […]

[6] = test system: GH (growth hormone) secretion; experiment: GH concentration in blood of fasted rhesus monkeys after p.o. administration; assay type: in vivo; details: for duration of GH lowering effect: p.o., example 2 at 0.1 mg/kg, lowering by at least 50 per cent
Experimental: Compounds of the invention which inhibit GH (growth hormone) secretion, especially the compounds of formula VIII, and more especially compounds of formula VIII a to f, and reduce the GH concentrations in the blood, may be tested as follows: Fasted rhesus monkeys (at least 5 monkeys) in primate chairs receive the compound of the invention in a piece of banana as vehicle. The compounds are administered at a dose of from about 0.1 mg/kg to about 10 mg/kg p.o. Blood is taken from the […] via a catheter. The GH concentration in the blood is measured by RIA (radio immunoassay).

GH level in the serum [7] = experiment: GH-reducing activity in male rats having oestradiol implants; assay type: in vivo; details: oestradiol-implanted male rats
Experimental: The GH-reducing activity of these compounds is also observed after oral application to male rats having oestradiol implants. In this test there are relatively small variations in the GH level, The test is carried out as follows:
A loop (length 50 mm .0. 3 mm) of silastic with 50 mg of oestradiol is implanted under ether anaesthesis under the dorsal skin of male rats which have a weight of ca. 300 g. At various times (1 to 6 months later), these animals are used repeatedly for tests. The test substance is administered either s.c. or orally.
Directly before, as well as at various times after administration of the substance, ca. 0.8 ml of blood is removed from the retro-orbital plexus. It is centrifuged and the GH level in the serum is determined by RIA.

gastric acid secretion = experiment: Gastric acid secretion in fasted rats with stomach fistula; assay type: in vivo; details: for duration of increased stomach pH / pH of the stomach juice reached: by stomach tube
Experimental: The activity of these compounds is observed in e.g. the following test: GH secretion inhibiting compounds of the invention are administered to fasted rats with fistula implanted in their stomach in doses from about 0.05 mg/kg to about 5 mg/kg by stomach tune. After 1 hour the fistula is opened. The stomach Juice is collected in 30 minute periods. The collected volumes are registered and the acid concentration determined.

[8] = s.c., male rats, 1 hour after administration

CC[C@H](C)[C@@H]1NC(=O)[C@H](Cc2ccc(O)cc2)NC(=O)[C@@H](NC[C@@]2(O)OC[C@@H](O)[C@@H](O)[C@@H]2O)CSSC[C@@H](C(=O)N2CCC[C@H]2C(=O)N[C@@H](CC(C)C)C(=O)NCC(N)=O)NC(=O)[C@H](CC(N)=O)NC(=O)[C@H](CCC(N)=O)NC1=O [Example 44, [N-deoxy-fructosyl-Cys^1]-oxytocin] (H-[X2]YIQNCPLG-NH2; disulfide 1-6; C-terminus assumed)
level at 0.25 h [1]: 11.8 ng/mL
level at 0.5 h [1]: 6.98 ng/mL
level at 1 h [1]: 3.98 ng/mL

N^α -isocaproyl-des-(1-4)-[Ala^7, N^κ -(α-D-glucosyl-(1-4)-deoxyfructosyl)-Lys^11,18 ]salmon Calcitonin [Example 38]
duration of action compared with the unmodified peptide [2]: much longer
reduction in the calcium level in the blood after 6 hours [2]: still as pronounced as after 3 hours

C[C@@H](O)[C@@H]1NC(=O)[C@H](CCCCN)NC(=O)[C@@H](Cc2c[nH]c3ccccc23)NC(=O)[C@H](Cc2ccccc2)NC(=O)[C@@H](NC(=O)[C@@H](Cc2ccccc2)NC(=O)[C@H]2OC(O)[C@H](O)[C@@H](O)[C@@H]2O)CSSC[C@@H](C(=O)N[C@H](CO)[C@@H](C)O)NC1=O (stereo partly shown) [Example 21]
ID50 (amount required to lower the GH content by 50%) (GH level in the serum [3]; rat, in vivo, sc): 0.3 microgram/kg

C[C@@H](O)[C@@H]1NC(=O)[C@H](CCCCN)NC(=O)[C@@H](Cc2c[nH]c3ccccc23)NC(=O)[C@H](Cc2ccccc2)NC(=O)[C@@H](NC(=O)[C@H](N)Cc2ccccc2)CSSC[C@@H](C(=O)N[C@H](CO)[C@@H](C)O)NC1=O [Octreotide, reference compound]
half-life ([4]; dog, blood, intravenous administration, read-out: elimination half-life (converted)): ~30 min
dose excreted ([5]; rats, 10 microgram/kg s.c., read-out: Percentage eliminated through Bile): 22%
dose excreted ([5]; rats, 10 microgram/kg s.c., read-out: Percentage eliminated through Urine): 19%
duration of GH lowering effect [6]: 5 h
ID50 p.o. (GH level in the serum [7]): 1400 microgram/kg
duration of increased stomach pH (gastric acid secretion): 2 hours
pH of the stomach juice reached (gastric acid secretion): 6-7 pH

C[C@H](N)C(=O)NCC(=O)N[C@H]1CSSC[C@@H](C(=O)O)NC(=O)[C@H](CO)NC(=O)[C@H]([C@@H](C)O)NC(=O)[C@H](Cc2ccccc2)NC(=O)[C@H]([C@@H](C)O)NC(=O)[C@H](CCCCN)NC(=O)[C@H](Cc2c[nH]c3ccccc23)NC(=O)[C@H](Cc2ccccc2)NC(=O)[C@H](Cc2ccccc2)NC(=O)[C@H](CC(N)=O)NC(=O)[C@H](CCCCN)NC1=O [natural stomatostatin, reference compound]
ID50 (amount required to lower the GH content by 50%) (GH level in the serum [3]; [8]): 93 microgram/kg

C[C@@H](O)[C@@H]1NC(=O)[C@H](CCCCN)NC(=O)[C@@H](Cc2c[nH]c3ccccc23)NC(=O)[C@H](Cc2ccccc2)NC(=O)[C@@H](NC(=O)[C@@H](Cc2ccccc2)NC[C@@]2(O)OC[C@@H](O)[C@@H](O[C@H]3O[C@H](CO)[C@@H](O)[C@H](O)[C@H]3O)[C@@H]2O)CSSC[C@@H](C(=O)N[C@H](CO)[C@@H](C)O)NC1=O [Example 2, N^α -[α-glucosyl(1-4)-dioxyfructosyl)-SMS] (H-[X1]CF[dW]KTC[Thr(ol)]; disulfide 2-7)
elimination half-life ([4]; intravenous administration): about 2,3 hours
blood concentration on oral administration compared with octreotide ([4]; oral administration, relative to octreotide): ten fold higher
absolute bioavailability on the basis of the AUC, relative to octreotide ([4]; orally and intravenously administered, relative to octreotide): 5 times
dose excreted ([5]; Percentage eliminated through Bile): 1.6%
dose excreted ([5]; Percentage eliminated through Urine): 36%
lowering of GH secretion ([6]; 0.1 mg/kg p.o.): at least 50 per cent
duration of GH lowering effect [6]: > 10 h
ID50 (amount required to lower the GH content by 50%) (GH level in the serum [3]; [8]): 0.190 microgram/kg
duration of increased stomach pH (gastric acid secretion): 3,5 hours
pH of the stomach juice reached (gastric acid secretion): 6-8 pH
activity relative to cimetidine (gastric acid secretion; compared with cimetidine): at least 60 times

C[C@@H](O)[C@@H]1NC(=O)[C@H](CCCCN)NC(=O)[C@@H](Cc2c[nH]c3ccccc23)NC(=O)[C@H](Cc2ccccc2)NC(=O)[C@@H](NC(=O)[C@@H](Cc2ccccc2)NC[C@@]2(O)OC[C@@H](O)[C@@H](O)[C@@H]2O)CSSC[C@@H](C(=O)N[C@H](CO)[C@@H](C)O)NC1=O [Example 1] (H-[X3]CF[dW]KTC[Thr(ol)]; disulfide 2-7)
ID50 (amount required to lower the GH content by 50%) (GH level in the serum [3]; rat, in vivo, sc): 0.045 microgram/kg

CC[C@H](C)[C@@H]1NC(=O)[C@H](Cc2ccc(O)cc2)NC(=O)[C@@H](N)CSSC[C@@H](C(=O)N2CCC[C@H]2C(=O)N[C@@H](CC(C)C)C(=O)NCC(N)=O)NC(=O)[C@H](CC(N)=O)NC(=O)[C@H](CCC(N)=O)NC1=O [oxytocin, reference compound]
level at 0.25 h [1]: 7.53 ng/mL
level at 0.5 h [1]: 3.6 ng/mL
level at 1 h [1]: 2.55 ng/mL

N^α -isocaproyl-des(1-4)-[Ala^7,Nε-(1-deoxyfructosyl)-Lys^11,1 8 ]salmon Calcitonin [Example 37]
duration of action compared with the unmodified peptide [2]: much longer
reduction in the calcium level in the blood after 6 hours [2]: still as pronounced as after 3 hours
